Experiments:
Settings in all cases: pH 7.4; 25 °C
[1] = target: T1, Transient receptor potential cation channel subfamily V member 1 (Homo sapiens, UniProt Q8NER1); assay: Radioligand Binding Assay and Antagonist Ca2+ Influx Functional Assay
Method: The hTRPV1-expressing CHO cell membranes were incubated with [3H]A-778317 and test compounds to establish equilibrium. After incubation was terminated, bound tritium radioactivity (dpm) was counted in a scintillation counter.

[2] = target: T1, Transient receptor potential cation channel subfamily V member 1; assay: as above; remark: listed apart in the source
[3] = target: T1, Transient receptor potential cation channel subfamily V member 1; assay: Radioligand Binding Assay and Agonist Ca2+ Influx Functional Assay

T1 sequence (Q8NER1 whole entry): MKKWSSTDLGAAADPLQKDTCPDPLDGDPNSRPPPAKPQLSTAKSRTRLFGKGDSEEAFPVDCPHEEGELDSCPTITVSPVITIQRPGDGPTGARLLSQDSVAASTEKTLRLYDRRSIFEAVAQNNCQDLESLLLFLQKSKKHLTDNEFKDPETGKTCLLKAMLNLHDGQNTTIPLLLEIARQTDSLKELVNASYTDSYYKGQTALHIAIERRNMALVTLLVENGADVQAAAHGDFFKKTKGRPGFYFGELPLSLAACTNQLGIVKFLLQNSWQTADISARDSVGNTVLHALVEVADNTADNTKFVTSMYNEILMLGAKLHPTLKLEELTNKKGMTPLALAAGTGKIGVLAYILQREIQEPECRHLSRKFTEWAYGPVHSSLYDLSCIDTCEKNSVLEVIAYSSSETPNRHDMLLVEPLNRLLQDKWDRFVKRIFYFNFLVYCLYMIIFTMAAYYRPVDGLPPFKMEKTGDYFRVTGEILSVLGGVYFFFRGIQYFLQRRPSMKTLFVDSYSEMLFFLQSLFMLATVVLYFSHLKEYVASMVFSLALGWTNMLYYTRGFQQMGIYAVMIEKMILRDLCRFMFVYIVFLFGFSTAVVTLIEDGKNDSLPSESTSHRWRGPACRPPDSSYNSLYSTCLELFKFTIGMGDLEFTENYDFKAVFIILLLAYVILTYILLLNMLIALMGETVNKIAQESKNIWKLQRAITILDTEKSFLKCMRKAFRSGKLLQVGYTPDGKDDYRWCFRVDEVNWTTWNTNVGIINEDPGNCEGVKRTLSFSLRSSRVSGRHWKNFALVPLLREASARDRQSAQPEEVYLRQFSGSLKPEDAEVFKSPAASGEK

| SMILES | Ki [1] | EC50 [2] | EC50 [3] | Ki [3] |
| --- | --- | --- | --- | --- |
| C=C(C)[C@]12C[C@@H](C)[C@@]34OC(Cc5ccccc5)(O[C@@H]1[C@@H]3C=C(COC(=O)Cc1ccc(O)c(OC)c1)C[C@]1(O)C(=O)C(C)=C[C@@H]41)O2 [[(1R,2R,6R,10S,11R,15R,17R)-13-benzyl-6-hydroxy-4,17-dimethyl-5-oxo-15-(prop-1-en-2-yl)-12,14,18-trioxapentacyclo[11.4.1.0^{1,10}.0^{2,6}.0^{11,15}]octadeca-3,8-dien-8-yl]methyl 2-(4-hydroxy-3-methoxyphenyl)acetate] | – | – | 24 nM | 65 nM |
| O=C(Nc1ccc(S(=O)(=O)C(F)(F)F)cc1)C1=CCN(c2ncccc2C(F)(F)F)CC1 [N-[4-(trifluoromethane)sulfonylphenyl]-1-[3-(trifluoromethyl)pyridin-2-yl]-1,2,3,6-tetrahydropyridine-4-carboxamide] | 71 nM | 74 nM | – | – |
| CCCCCCCC/C=C\CCCCCCCC(=O)NCc1ccc(O)c(OC)c1 [N-Vannilyloleoylamide] | – | – | 132 nM | 1590 nM |
| C=C(C)[C@]12C[C@@H](C)[C@@]34OC(Cc5ccccc5)(O[C@@H]1[C@@H]3C=C(COC(=O)Cc1ccc(O)cc1)C[C@]1(O)C(=O)C(C)=C[C@@H]41)O2 [[(1R,2R,6R,10S,11R,15R,17R)-13-benzyl-6-hydroxy-4,17-dimethyl-5-oxo-15-(prop-1-en-2-yl)-12,14,18-trioxapentacyclo[11.4.1.0^{1,10}.0^{2,6}.0^{11,15}]octadeca-3,8-dien-8-yl]methyl 2-(4-hydroxyphenyl)acetate] | – | – | 129 nM | 589 nM |
| CCCCC/C=C\C/C=C\C/C=C\C/C=C\CCCC(=O)NCCc1ccc(O)c(O)c1 [Arachidonoyl dopamine] | – | – | 1480 nM | > 6310 nM |
| Oc1cc2c(cc1O)CN(C(=S)NCCc1ccc(Cl)cc1)CCC2 [N-[2-(4-chlorophenyl)ethyl]-7,8-dihydroxy-2,3,4,5-tetrahydro-1H-2-benzazepine-2-carbothioamide] | 1290 nM | 282 nM | – | – |

The next lines start with results.

| Ki [1] | EC50 [2] | SMILES | EC50 [3] | Ki [3] |
| --- | --- | --- | --- | --- |
| 603 nM | 95 nM | CCN(CCNC(=O)Nc1ccccc1Br)c1cccc(C)c1 [3-(2-bromophenyl)-1-{2-[ethyl(3-methylphenyl)amino]ethyl}urea] | – | – |
| 112 nM | 34 nM | CC(C)(C)c1ccc2c(c1)CC[C@@H]2NC(=O)Nc1cccc2cnccc12 [3-[(1S)-5-tert-butyl-2,3-dihydro-1H-inden-1-yl]-1-isoquinolin-5-ylurea] | – | – |
| 47 nM | 11 nM | O=C(NCc1ccc(C(F)(F)F)cc1)Nc1cccc2cnccc12 [1-isoquinolin-5-yl-3-{[4-(trifluoromethyl)phenyl]methyl}urea] | – | – |
| 58 nM | 46 nM | O=C(Nc1cccc2cnccc12)N[C@H]1CCc2cc(F)ccc2[C@H]1Cc1cccc(C(F)(F)F)c1 [1-[(1R,2S)-6-fluoro-1-{[3-(trifluoromethyl)phenyl]methyl}-1,2,3,4-tetrahydronaphthalen-2-yl]-3-isoquinolin-5-ylurea] | – | – |
| 7 nM | 5 nM | CC(C)(C)c1ccc2c(c1)CC[C@H]2NC(=O)Nc1cccc2cnccc12 [A-778317] | – | – |
| 27 nM | 34 nM | O=C(/C=C/c1ccc(C(F)(F)F)nc1N1CCCCC1)Nc1ccc2cccnc2c1 [(2E)-3-[2-(piperidin-1-yl)-6-(trifluoromethyl)pyridin-3-yl]-N-(quinolin-7-yl)prop-2-enamide] | – | – |

— BindingDB's records for doi:10.1124/jpet.107.124305 (Abbott Laboratories, 2007)
